Laboratory results published in the supplement of paper PMC10307832.

Assays:
Assay in all cases: relative viability (nuclei count vs DMSO), 5 days (fraction); higher = more cells survive
R406 + Decitabine = compound: COc1cc(Nc2ncc(F)c(Nc3ccc4c(n3)NC(=O)C(C)(C)O4)n2)cc(OC)c1OC [R406] + Nc1ncn([C@H]2C[C@H](O)[C@@H](CO)O2)c(=O)n1 [Decitabine] (partner 2 µM)
Procedure, shortened: (§1)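 Relative viability equals treated-well nuclei counts divided by vehicle-well nuclei counts. Counts came from 4× images of lung cancer cell lines grown in 1536-well plates for 5 days after pin-tool dosing on the day after seeding. Dosing used one drug alone or a fixed anchor-drug dose plus five library-drug doses (not always all listed) in √10 steps, and values are medians of duplicate plates.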

R406 + Pictilisib = compound: COc1cc(Nc2ncc(F)c(Nc3ccc4c(n3)NC(=O)C(C)(C)O4)n2)cc(OC)c1OC [R406] + CS(=O)(=O)N1CCN(Cc2cc3nc(-c4cccc5[nH]ncc45)nc(N4CCOCC4)c3s2)CC1 [Pictilisib] (partner 1 µM)
Procedure, shortened: as §1

Daporinad + AZD7762 = compound: O=C(/C=C/c1cccnc1)NCCCCC1CCN(C(=O)c2ccccc2)CC1 [Daporinad] + NC(=O)Nc1cc(-c2cccc(F)c2)sc1C(=O)N[C@H]1CCCNC1 [AZD7762] (partner 0.2 µM)
Procedure, shortened: as §1

Daporinad + Trametinib = compound: O=C(/C=C/c1cccnc1)NCCCCC1CCN(C(=O)c2ccccc2)CC1 [Daporinad] + CC(=O)Nc1cccc(-n2c(=O)n(C3CC3)c(=O)c3c(Nc4ccc(I)cc4F)n(C)c(=O)c(C)c32)c1 [Trametinib] (partner 0.02 µM)
Procedure, shortened: as §1

Cell Line | relative viability (R406 + Decitabine; first compound 0.08 µM) | relative viability (R406 + Decitabine; first compound 0.253 µM) | relative viability (R406 + Decitabine; first compound 0.8 µM) | relative viability (R406 + Decitabine; first compound 2.53 µM) | relative viability (R406 + Decitabine; first compound 8 µM) | relative viability (R406 + Pictilisib; first compound 0.08 µM) | relative viability (R406 + Pictilisib; first compound 0.253 µM) | relative viability (R406 + Pictilisib; first compound 0.8 µM) | relative viability (R406 + Pictilisib; first compound 2.53 µM) | relative viability (R406 + Pictilisib; first compound 8 µM) | relative viability (Daporinad + AZD7762; first compound 0.0005 µM) | relative viability (Daporinad + AZD7762; first compound 0.001581 µM) | relative viability (Daporinad + AZD7762; first compound 0.005 µM) | relative viability (Daporinad + AZD7762; first compound 0.01581 µM) | relative viability (Daporinad + Trametinib; first compound 0.0005 µM) | relative viability (Daporinad + Trametinib; first compound 0.001581 µM) | relative viability (Daporinad + Trametinib; first compound 0.005 µM) | relative viability (Daporinad + Trametinib; first compound 0.01581 µM)
NCI-H2347 | 0.666 | 0.645 | 0.594 | 0.631 | 0.562 | 0.53 | 0.952 | 0.605 | 0.624 | 0.28 | 0.785 | 0.814 | 0.726 | 0.547 | 0.301 | 0.288 | 0.281 | 0.329
NCI-H2405 | 0.703 | 0.814 | 0.756 | 0.615 | 0.369 | 0.514 | 0.475 | 0.396 | 0.265 | 0.175 | 0.786 | 0.856 | 0.792 | 0.357 | 0.69 | 0.664 | 0.647 | 0.509
NCI-H3122 | 0.368 | 0.398 | 0.328 | 0.508 | 0.482 | 0.581 | 0.59 | 0.668 | 0.576 | 0.604 | 0.978 | 1.05 | 1.09 | 0.825 | 0.165 | 0.227 | 0.213 | 0.217
PC-3 [JPC-3] | 0.912 | 0.898 | 0.974 | 0.747 | 0.62 | 0.764 | 0.762 | 0.814 | 0.467 | 0.421 | 0.734 | 0.829 | 0.9 | 0.836 | 0.667 | 0.714 | 0.758 | 0.842
PC-14 | 0.301 | 0.237 | 0.25 | 0.0789 | 0.0868 | 0.669 | 0.835 | 0.703 | 0.319 | 0.381 | 0.22 | 0.363 | 0.362 | 0.45 | 0.657 | 0.654 | 0.722 | 0.572
RERF-LC-KJ | 0.706 | 0.628 | 0.72 | 0.252 | 0.529 | 0.749 | 0.488 | 0.64 | 0.43 | 0.502 |  | 1.2 | 1.14 | 1.11 | 0.788 | 1.01 | 0.955 | 0.921
